# Entries after “also recorded” stand apart in the source; their conditions may differ.
# Test system: conscious dogs
# Test: one-hour infusion of atriopeptin 24 in conscious dogs, renal hemodynamics and function, before and after α1-adrenergic receptor blockade
# Type: in vivo, dog
# Details: prazosin 1 mg/kg 40 minutes prior to one-hour atriopeptin 24 infusion
# Description: In this example, I first infused conscious dogs for one hour with atriopeptin 24 and measured the effects on renal hemodynamics and function. At least one week later, I treated the same dogs with the α1 -adrenergic blocking agent, prazosin, 40 minutes prior to a one-hour atriopeptin 24 infusion.
# The experiments were conducted using the following techniques and devices: female mongrel dogs were instrumented using sterile surgical techniques under sodium pentobarbital anesthesia (25 mg/kg). To measure renal blood flow, a Doppler ultrasonic flow transducer (Parks Electronics) was placed around the left renal artery. […]
# Arterial pressure was recorded using the implanted catheter attached to a Statham P23Db strain gauge transducer. Renal blood flow was measured using an ultrasonic flowmeter (Model 806A, Parks Electronics) and the implanted Doppler flow transducer. Phasic arterial pressure and renal blood flow were recorded on magnetic tape (Bell and Howell 3700B) and played back on a direct writing oscillograph (Gould-Brush 2800S). […] Heart rate was calculated using a cardiotachometer (Beckman Model 80574) from the pressure pulse interval.
# To measure renal function, urine samples were taken from the dogs, urine volume was measured and the concentration of urine and plasma sodium (Na) and potassium (K) was assayed using a flame photometer (Instrumentation Laboratories, Model 343). […]
smiles,measurement,value
COc1cc2nc(N3CCN(C(=O)c4ccco4)CC3)nc(N)c2cc1OC [prazosin],effect of α1-adrenergic blockade on renal vasodilation produced by atriopeptin 24,renal blood flow remained elevated for the duration of the atriopeptin 24 infusion; also recorded: caused a sustained renal vasodilation
